Measured values published in patent US5663197A, “2-(1-hydroxyethyl)-5-hydroxynaphtho[2,3-b]furan-4,9-dione and antitumor agents comprising this compound” (priority 1992, dated 1997).
Values after ≈ are worked out from the molar mass of the structure shown.

What was measured:
[1] = test system: Human lung adenocarcinoma SK-LU-1 cells; test: In vitro antitumor test (trypan blue exclusion viable cell count), SK-LU-1; format: cell-based; conditions: 72 h, three days exposure, read-out: LD50 (IC50), 50% growth-inhibitory dose
Method: (§1) An appropriate amount of NFD was dissolved in DMSO to give a 1.0 mg/ml stock solution, which was diluted as necessary before use.
(§2) The following cells in the late logarithmic phase were harvested after treatment with trypsin (containing 0.25% trypsin and 0.02% EDTA; 37° C., 3 min) and used in the test: human lung adenocarcinoma cell lines A-549, VMRC-LCD and SK-LU-1, human lung squamous cell carcinoma Calu-1 cells, human colon adenocarcinoma WiDr cells, human prostate cancer LNCaP cells, human vaginal squamous cell carcinoma A-431 cells, human cervical carcinoma HeLa cells, human cholangiocarcinoma HuCC-T1 cells, mouse skin cancer melanoma B16 (M4) cells, human pancreatic carcinoma ASPC-1 cells, human neuroblastoma IMR-132 cells, human lung small cell carcinoma SCCH-194 cells, human uninary bladder carcinoma T24 cells, human renal cell carcinoma […] cells, human gastric cancer NUGC-2 cells, human thyroid carcinoma 8305C cells, human hepatoma HUH-7 cells, human ovarian carcinoma TYK-nu cells and human chorio carcinoma BeWo cells. […] These cells were plated onto a 96-well microplate at a density of 5-10×10^3 cells/cm^2 using DMEM or RPMI-1640 medium containing 10% fetal bovine serum and cultured for 24 hours in a conventional manner, after which a pre-determined amount of NFD dissolved in DMSO was added to each well. […]

[2] = test system: Human colon adenocarcinoma WiDr cells; test: In vitro antitumor test (trypan blue exclusion viable cell count), WiDr; format: cell-based
Method: as §1
as §2, with “cells. Suspension cultures of human breast cancer MRK-nu-1 cells, human malignant B-cell lymphoma cells and human chronic myelogenous leukemia K562 cells were used to harvest the cells to be used in the test.” for “cells.”, “well. Cultivation was continued, and the number of viable cells was counted after 24, 48 and 72 hours.” for “well.”
(§3) Growth inhibitory action and lethal activity of NFD on various types of malignant tumor cells and normal human cells listed above were evaluated by counting the number of viable cells in each well of the 96-well microplate. […]

[3] = test system: Human cervical carcinoma HeLa cells; test: In vitro antitumor test (trypan blue exclusion viable cell count), HeLa; format: cell-based
Method: as §1, §2

[4] = test system: Human chronic myelogenous leukemia K562 cells; test: In vitro antitumor test (trypan blue exclusion viable cell count), K562; format: cell-based; conditions: 72 h, three days exposure, read-out: LD50 (IC50), 50% growth-inhibitory dose
Method: as §1, §2

[5] = test system: Human gastric cancer NUGC-2 cells; test: In vitro antitumor test (trypan blue exclusion viable cell count), NUGC-2; format: cell-based
Method: as §1, §2

[6] = test system: Normal human N6KA fibroblasts; test: In vitro growth test on normal cells, N6KA fibroblasts; format: cell-based
Method: as §1, §2

[7] = test system: Normal human peripheral blood lymphocytes; test: In vitro growth test on normal cells, peripheral blood lymphocytes; format: cell-based
Method: as §1, §2

Normal human renal cells = test: In vitro growth test on normal cells, renal cells; format: cell-based
Method: as §1
as §2, with “cells. Suspension cultures of human breast cancer MRK-nu-1 cells, human malignant B-cell lymphoma cells and human chronic myelogenous leukemia K562 cells were used to harvest the cells to be used in the test.” for “cells.”, “well. Cultivation was continued, and the number of viable cells was counted after 24, 48 and 72 hours.” for “well.”
as §3

[8] = General toxicology in ICR mice; conditions: mouse, in vivo, ICR mice (male)
[9] = test system: carcinogenic promotion (skin papillomas in mice); test: Inhibition of two-step skin carcinogenesis in mice skin; format: in vivo, mouse (female ICR); conditions: DMBA initiator, TPA promoter, 20 weeks; FIG. 28 (NFD 85 nmol), FIG. 29 (lapacoal)
Method: Female ICR mice were used as test animals. Fifteen mice were housed in a cage and kept on a commercial pellet diet and drinking water ad libitum until the end of the experiment. The mice were purchased at their age of six-week-old. Dorsal hair of mice was shaved, and next day, 390 nmol of 7,12-dimethylbenz(a)anthracene (DMBA) in 0.1 ml acetone was applied, as an initiator, on the shaved back. One week later, 1.7 nmol of 12-O-tetradecanoylphorbol-13-acetate (TPA) in 0.1 ml acetone was applied, as a promoter, to the same place twice a week. This procedure was repeated for 20 weeks.
Mice were observed once a week for the number of papillomas larger than 1 mm, and the experimental results were given as the percentage of papilloma-bearing mice in each group and the number of papillomas per mouse.

For `CC(O)c1cc2c(o1)C(=O)c1cccc(O)c1C2=O` (stereo not shown) [NFD, 2-(1-hydroxyethyl)-5-hydroxynaphtho[2,3-b]furan-4,9-dione], the IC50 [1] was 0.017 µg/mL (≈ 0.0658 µM), the “concentration causing necrosis in almost all tumor cells” value ([2]; FIG. 5) was 44.7 to 55.9 ng/mL and the IC50 ([2]; Homo sapiens, 72 h, WiDr, three days exposure, read-out: LD50 (IC50), 50% growth-inhibitory dose) was 0.011 µg/mL (≈ 0.0426 µM). It also gave an IC (almost complete) ([2]; Homo sapiens, WiDr, FIG. 5, read-out: concentration inhibiting growth almost completely) of 0.0224 to 0.0335 µg/mL, an IC50 ([3]; 72 h, three days exposure, read-out: LD50 (IC50), 50% growth-inhibitory dose) of 0.018 µg/mL (≈ 0.0697 µM) and an IC (almost complete) ([3]; FIG. 8, read-out: concentration inhibiting growth almost completely) of 0.0224 µg/mL. The IC50 [4] was 0.014 µg/mL (≈ 0.0542 µM), the IC50 ([5]; 72 h, NUGC-2, three days exposure, read-out: LD50 (IC50), 50% growth-inhibitory dose) was 0.017 µg/mL (≈ 0.0658 µM) and the IC (almost complete) ([5]; FIG. 18, read-out: concentration inhibiting cells almost completely) was 0.033 µg/mL. The “adverse effects on growth of normal cells” value (from here on “adverse effects on growth”) ([6]; FIG. 24, at concentrations which cause necrosis in tumor cells) was “no adverse effects”, the IC50 ([6]; Homo sapiens, Fibroblast, 72 h, N6KA normal fibroblasts, three days exposure, read-out: LD50 (IC50), 50% growth-inhibitory dose) was 0.084 µg/mL (≈ 0.325 µM) and the “adverse effects on growth” value ([7]; FIG. 26, at concentrations which cause necrosis in tumor cells) was “no adverse effects”. The IC50 ([7]; Homo sapiens, Lymphocyte, 72 h, normal peripheral blood lymphocytes, three days exposure, read-out: LD50 (IC50), 50% growth-inhibitory dose) was 0.084 µg/mL (≈ 0.325 µM), the “adverse effects on growth” value (Normal human renal cells; FIG. 27, at concentrations which cause necrosis in tumor cells) was “no adverse effects” and the “concentration inhibiting growth of normal renal cells” value (Normal human renal cells; FIG. 27, only at higher concentration) was 100 ng/mL. It also gave an IC50 (Normal human renal cells; Homo sapiens, 72 h, normal renal cells, three days exposure, read-out: LD50 (IC50), 50% growth-inhibitory dose) of 0.065 µg/mL (≈ 0.252 µM), an LD50 ([8]; ip, intraperitoneally) of 7.3 mg/kg and an LD50 ([8]; po, orally) of 8.4 mg/kg. For the same compound, the “inhibitory effect on carcinogenic promotion in skin” value [9] was “inhibitory effect”.
